Consider 8 compounds from article PMC8880564, “Design, Synthesis, and Biological Evaluation of a Novel VEGFR-2 Inhibitor Based on a 1,2,5-Oxadiazole-2-Oxide Scaffold with MAPK Signaling Pathway Inhibition” (Pharmaceuticals, 2022).

SMILES strings stand for the structures.

Assay in all cases: NCI-60 one-dose SRB screening
What all share (format): cell-based

One assay deals with UO-31. The settings on record: Homo sapiens, UO-31, Renal Cancer, 10 µM one dose, 48 h, read-out: growth percentage.
Another assay deals with DU-145. The settings on record: Homo sapiens, DU-145, Prostate Cancer, 10 µM one dose, 48 h, read-out: growth percentage.
Another assay has as its system NCI-H522. As to conditions: Homo sapiens, NCI-H522, Non-Small Cell Lung Cancer, 10 µM one dose, 48 h, read-out: growth percentage.
The next assay concerns SW-620. As to conditions: Homo sapiens, SW-620, Colon Cancer, 10 µM one dose, 48 h, read-out: growth percentage.
For another assay, the system named is MALME-3M. As to conditions: Homo sapiens, Melanoma, 10 µM one dose, 48 h, read-out: growth percentage.
A further assay relates to 786-0. The settings on record: Homo sapiens, 786-0, Renal Cancer, 10 µM one dose, 48 h, read-out: growth percentage.
The next assay relates to SK-MEL-5. As to conditions: Homo sapiens, SK-MEL-5, Melanoma, 10 µM one dose, 48 h, read-out: growth percentage.
In a further assay the test system is RXF 393. The settings on record: Homo sapiens, RXF 393, Renal Cancer, 10 µM one dose, 48 h, read-out: growth percentage.
The test system of a further assay is SF-295. The settings on record: Homo sapiens, SF-295, CNS Cancer, 10 µM one dose, 48 h, read-out: growth percentage.
The test system of another assay is MDA-MB-468. As to conditions: Homo sapiens, MDA-MB-468, Breast Cancer, 10 µM one dose, 48 h, read-out: growth percentage.
For a further assay, the system named is HL-60(TB). The settings on record: Homo sapiens, Leukemia, 10 µM one dose, 48 h, read-out: growth percentage.
The subject of a further assay is SF-268. As to conditions: Homo sapiens, SF-268, CNS Cancer, 10 µM one dose, 48 h, read-out: growth percentage.
The next assay relates to M14. As to conditions: Homo sapiens, M14, Melanoma, 10 µM one dose, 48 h, read-out: growth percentage.
Another assay deals with TK-10. As to conditions: Homo sapiens, TK-10, Renal Cancer, 10 µM one dose, 48 h, read-out: growth percentage.
Another assay has as its system OVCAR-5. The settings on record: Homo sapiens, OVCAR-5, Ovarian Cancer, 10 µM one dose, 48 h, read-out: growth percentage.
The test system of the next assay is MOLT-4. As to conditions: Homo sapiens, MOLT-4, Leukemia, 10 µM one dose, 48 h, read-out: growth percentage.
A further assay concerns NCI-H226. The settings on record: Homo sapiens, NCI-H226, Non-Small Cell Lung Cancer, 10 µM one dose, 48 h, read-out: growth percentage.

On to `Cc1nc(Nc2ccc(OCc3c(-c4ccccc4)no[n+]3[O-])cc2)c2c(C)nn(-c3ccc(Br)cc3)c2n1` [6h, 3-((4-((1-(4-bromophenyl)-3,6-dimethyl-1H-pyrazolo[3,4-d]pyrimidin-4-yl)amino)phenoxy)methyl)-4-phenyl-1,2,5-oxadiazole 2-oxide], for which the activity at 10 µM stood at 74% with UO-31; 102% in the assay on DU-145; 84% in the assay on NCI-H522; 101% with SW-620; 96% in the assay on MALME-3M; 107% in the assay on 786-0. For the same compound, the activity at 10 µM was 91.5% in the assay on SK-MEL-5; 136% in the assay on RXF 393; 105% in the assay on SF-295; 116% with MDA-MB-468; 70.8% in the assay with HL-60(TB); 94.7% with SF-268. Moreover, the activity at 10 µM with M14 is 89.5%; in the assay with TK-10, 114%; in the assay with OVCAR-5 it was 102%; in the assay on MOLT-4, 87.6%; in the assay with NCI-H226, 109%.

In the case of `Nc1ccc(NCc2c(-c3ccccc3)no[n+]2[O-])cc1` [compound 11, 3-(((4-aminophenyl)amino)methyl)-4-phenyl-1,2,5-oxadiazole 2-oxide], the activity at 10 µM in the assay on UO-31 stood at 98.9%; with DU-145, 112%; in the assay on NCI-H522, 93.5%; in the assay on SW-620 it was 115%; in the assay with MALME-3M, 100%; with 786-0, 140%. Also, the activity at 10 µM stood at 112% in the assay with SK-MEL-5; 134% with RXF 393; 117% with SF-295; 85.3% in the assay on MDA-MB-468; 95.5% in the assay with HL-60(TB); 101% with SF-268. The activity at 10 µM in the assay with M14 was 102%; in the assay with TK-10, 156%; with OVCAR-5, 116%; in the assay on MOLT-4 it was 91.8%; in the assay with NCI-H226, 114%.

As to `Cc1nn(-c2ccc(Br)cc2)c2nc(C(F)(F)F)nc(Nc3ccc(NCc4c(-c5ccccc5)no[n+]4[O-])cc3)c12` [12c, 3-(((4-((1-(4-bromophenyl)-3-methyl-6-(trifluoromethyl)-1H-pyrazolo[3,4-d]pyrimidin-4-yl)amino)phenyl)amino)methyl)-4-phenyl-1,2,5-oxadiazole 2-oxide], the activity at 10 µM amounted to 50.3% in the assay with UO-31; 84.8% in the assay on DU-145; 83.5% in the assay with NCI-H522; 79.7% with SW-620; 77.7% with MALME-3M; 88.1% in the assay on 786-0. Moreover, the activity at 10 µM with SK-MEL-5 is 61.7%; in the assay on RXF 393 it was 89.2%; with SF-295, 57.5%; in the assay on MDA-MB-468, 84.2%; in the assay on HL-60(TB), 83.2%; in the assay with SF-268, 73.2%. In addition, the activity at 10 µM was 71.9% in the assay with M14; 109% in the assay on TK-10; 89.5% with OVCAR-5; 60.3% in the assay on MOLT-4; 75% in the assay with NCI-H226.

Regarding `Cc1nn(-c2ccccc2)c2nc(C(F)(F)F)nc(Nc3ccc(NCc4c(-c5ccccc5)no[n+]4[O-])cc3)c12` [12a, 3-(((4-((3-methyl-1-phenyl-6-(trifluoromethyl)-1H-pyrazolo[3,4-d]pyrimidin-4-yl)amino)phenyl)amino)methyl)-4-phenyl-1,2,5-oxadiazole 2-oxide], the activity at 10 µM in the assay on UO-31 worked out at 57.5%; in the assay on DU-145, 82.2%; in the assay with NCI-H522 it was 91.4%; with SW-620, 86%; with MALME-3M, 91%; in the assay on 786-0, 92.4%. In addition, the activity at 10 µM amounted to 70.3% with SK-MEL-5; 86.8% with RXF 393; 76.6% in the assay with SF-295; 75.8% in the assay on MDA-MB-468; 77.2% with HL-60(TB); 68.6% in the assay on SF-268. Also, the activity at 10 µM with M14 was 68.7%; in the assay on TK-10, 94.4%; with OVCAR-5, 93.7%; with MOLT-4, 56.4%; in the assay with NCI-H226, 85.6%.

On to `Cc1nn(-c2ccccc2)c2ncnc(Nc3ccc(OCc4c(-c5ccccc5)no[n+]4[O-])cc3)c12` [6c, 3-((4-((3-methyl-1-phenyl-1H-pyrazolo[3,4-d]pyrimidin-4-yl)amino)phenoxy)methyl)-4-phenyl-1,2,5-oxadiazole 2-oxide], for which the activity at 10 µM is 77% in the assay on UO-31; 106% in the assay on DU-145; 84.8% with NCI-H522; 107% in the assay on SW-620; 98.2% in the assay on MALME-3M; 107% in the assay with 786-0. The activity at 10 µM in the assay on SK-MEL-5 was 90.4%; with RXF 393, 112%; in the assay on SF-295 it was 99%; in the assay with MDA-MB-468 it was 97.1%; in the assay on HL-60(TB), 119%; with SF-268, 96.5%. Also, the activity at 10 µM in the assay with M14 came to 90.3%; in the assay with TK-10, 110%; with OVCAR-5, 104%; in the assay on MOLT-4, 92.9%; in the assay with NCI-H226, 97.3%.

Regarding `Cc1nn(-c2ccc(Br)cc2)c2ncnc(Nc3ccc(OCc4c(-c5ccccc5)no[n+]4[O-])cc3)c12` [6g, 3-((4-((1-(4-bromophenyl)-3-methyl-1H-pyrazolo[3,4-d]pyrimidin-4-yl)amino)phenoxy)methyl)-4-phenyl-1,2,5-oxadiazole 2-oxide], the activity at 10 µM in the assay with UO-31 was found to be 81.5%; in the assay with DU-145, 110%; in the assay on NCI-H522, 92%; with SW-620, 107%; with MALME-3M, 91.6%; with 786-0, 122%. For the same compound, the activity at 10 µM with SK-MEL-5 amounted to 96.5%; in the assay with RXF 393 it was 131%; in the assay on SF-295 it was 87.6%; in the assay on MDA-MB-468 it was 97.4%; in the assay with HL-60(TB), 115%; with SF-268, 104%. Besides, the activity at 10 µM with M14 came to 94%; with TK-10, 123%; in the assay on OVCAR-5, 99.3%; with MOLT-4 it was 97.7%; in the assay with NCI-H226 it was 89.9%.

Consider `Cc1nn(-c2ccc(Br)cc2)c2nc(CNc3ccc(NCc4c(-c5ccccc5)no[n+]4[O-])cc3)[nH]c(=O)c12` [14c, 3-(((4-(((1-(4-bromophenyl)-3-methyl-4-oxo-4,5-dihydro-1H-pyrazolo[3,4-d]pyrimidin-6-yl)methyl)amino)phenyl)amino)methyl)-4-phenyl-1,2,5-oxadiazole 2-oxide], for which the activity at 10 µM in the assay on UO-31 came out at 83.4%; in the assay with DU-145, 107%; in the assay with NCI-H522, 90.8%; with SW-620 it was 111%; in the assay with MALME-3M, 92.5%; in the assay on 786-0, 119%. Further, the activity at 10 µM was determined as 104% with SK-MEL-5; 117% in the assay with RXF 393; 115% in the assay on SF-295; 94.4% in the assay on MDA-MB-468; 103% in the assay on HL-60(TB); 95.2% with SF-268. Moreover, the activity at 10 µM was 107% in the assay with M14; 132% in the assay on TK-10; 110% with OVCAR-5; 87.2% in the assay on MOLT-4; 109% with NCI-H226.

Consider `Cc1nn(-c2ccc(Br)cc2)c2nc(CCl)[nH]c(=O)c12` [13c], for which the activity at 10 µM in the assay with UO-31 was -90.1%; in the assay on DU-145, 110%; in the assay on NCI-H522 it was 85.5%; in the assay with SW-620, 110%; with MALME-3M, -9.8%; with 786-0 it was 106%. Also, the activity at 10 µM was determined as 103% with SK-MEL-5; 119% with RXF 393; 100% in the assay on SF-295; 94% with MDA-MB-468; 99.4% with SF-268; 106% with M14. Also, the activity at 10 µM came to 111% with TK-10, 116% in the assay on OVCAR-5 and 102% in the assay on NCI-H226.
